# Values of other authors as cited in US20230355701A1, “CO[…] COMPOUNDS” (CAAMTECH, INC., priority 2019, published 2023).
# Like-named read-outs stand apart in the source and are kept apart here.
# What was measured:
# hMOR = hMOR (Homo sapiens, UniProt P35372); settings: for functional behaviour at hMOR: BRET functional assay
# [1] = target: human kappa opioid receptor (hKOR) (Homo sapiens, UniProt P41145)
# [2] = target: T1, human delta opioid receptor (hDOR) (Homo sapiens, UniProt P41143)
# [3] = target: T1, human delta opioid receptor (hDOR); remark: listed apart in the source
# [4] = mice
# [5] = rats
# [6] = dogs, given intraperitoneally or orally
# [7] = intracerebroventricular administration
# [8] = mediated through agonist activity at hMOR
# [9] = given intraperitoneally or orally
# T1 sequence (P41143 whole entry): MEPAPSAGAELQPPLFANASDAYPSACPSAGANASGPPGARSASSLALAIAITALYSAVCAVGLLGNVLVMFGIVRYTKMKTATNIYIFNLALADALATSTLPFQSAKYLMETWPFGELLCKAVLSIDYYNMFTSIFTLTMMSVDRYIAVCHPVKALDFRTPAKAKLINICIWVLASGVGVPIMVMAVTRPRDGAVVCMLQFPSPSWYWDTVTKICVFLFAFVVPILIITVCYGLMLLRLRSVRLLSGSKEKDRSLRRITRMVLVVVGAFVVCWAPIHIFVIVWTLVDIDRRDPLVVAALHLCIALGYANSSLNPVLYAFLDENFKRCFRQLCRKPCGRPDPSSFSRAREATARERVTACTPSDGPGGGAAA
# Sequence of human kappa opioid receptor (hKOR) (P41145 whole entry): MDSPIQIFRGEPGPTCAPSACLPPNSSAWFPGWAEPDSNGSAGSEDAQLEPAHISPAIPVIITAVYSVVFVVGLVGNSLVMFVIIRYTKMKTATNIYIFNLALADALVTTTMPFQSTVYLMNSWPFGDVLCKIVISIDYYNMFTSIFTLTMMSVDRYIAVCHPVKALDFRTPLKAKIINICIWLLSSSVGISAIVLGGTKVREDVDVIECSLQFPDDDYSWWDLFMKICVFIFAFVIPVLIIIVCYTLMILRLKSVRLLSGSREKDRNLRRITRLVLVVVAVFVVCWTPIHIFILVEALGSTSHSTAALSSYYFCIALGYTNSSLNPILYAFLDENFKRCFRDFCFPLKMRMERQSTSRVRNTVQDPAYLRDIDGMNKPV
# Sequence of hMOR (P35372 whole entry): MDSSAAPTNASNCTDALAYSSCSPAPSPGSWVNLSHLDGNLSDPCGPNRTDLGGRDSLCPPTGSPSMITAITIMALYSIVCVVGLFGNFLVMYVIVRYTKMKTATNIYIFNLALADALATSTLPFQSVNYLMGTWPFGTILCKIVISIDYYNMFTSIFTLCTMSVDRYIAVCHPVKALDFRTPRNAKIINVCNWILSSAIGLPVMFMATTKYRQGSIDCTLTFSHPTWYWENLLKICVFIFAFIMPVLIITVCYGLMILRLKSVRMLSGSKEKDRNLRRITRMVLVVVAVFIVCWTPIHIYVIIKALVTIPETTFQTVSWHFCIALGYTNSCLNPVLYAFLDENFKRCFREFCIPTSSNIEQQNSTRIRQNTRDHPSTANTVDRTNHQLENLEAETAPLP
SMILES,antagonist activity at hMOR (hMOR; hMOR),functional behaviour at hMOR (hMOR),IC50 [1],functional behaviour at hKOR [1],functional behaviour at hDOR [2],binding at hDOR [3],also measured
CCC1CN2CCc3c([nH]c4cccc(OC)c34)[C@@H]2C[C@@H]1/C(=C\OC)C(=O)OC (stereo partly drawn) [speciogynine],competitive antagonist activity,–,–,–,–,–,–
CC[C@@H]1CN2CCc3c([nH]c4cccc(OC)c34)[C@@H]2C[C@@H]1/C(=C\OC)C(=O)OC [Mitragynine],–,partial agonists,micromolar range,competitive antagonists,weak antagonist activity,negligible,"analgesic activity ([4]; administered subcutaneously): inactive; analgesic potency [4, 9]: equivalent to codeine; analgesic activity ([5]; administered subcutaneously): inactive; analgesic potency [5, 9]: equivalent to codeine; analgesic potency [6]: equivalent to codeine; analgesic activity [7]: active analgesic"
C=C[C@H]1CN2CCc3c([nH]c4cccc(OC)c34)[C@@H]2C[C@@H]1/C(=C\OC)C(=O)OC [paynantheine],competitive antagonist activity,–,–,–,–,–,IC50 (hMOR; hMOR): micromolar range
CC[C@@H]1CN2CCc3c([nH]c4cccc(OC)c34)[C@H]2C[C@@H]1/C(=C\OC)C(=O)OC [speciociliatine],competitive antagonist activity,–,–,–,–,–,–
"CC[C@@H]1CN2CC[C@@]3(O)C(=Nc4cccc(OC)c43)[C@@H]2C[C@@H]1/C(=C\OC)C(=O)OC [7-OH, 7-hydroxymitragynine]",–,partial agonists,micromolar range,competitive antagonists,weak antagonist activity,observed,analgesic effects [8]: exhibits analgesic effects
